Entries after “also recorded” stand apart in the source; their conditions may differ.
Legend:
E. coli and P. mirabilis = assay: P-AST species-pair interaction on antibiotic resistance (logistic regression, HSAP/UP); format: cell-based, Escherichia coli; Proteus mirabilis; settings: E. coli and P. mirabilis together v. expected from each species alone (HSAP/UP)
Protocol: (§1) The Pooled Antibiotic Sensitivity Test (P-AST) is permitting the organisms identified to grow in the presence of antibiotics and measuring the minimum concentration of antibiotic to inhibit growth. Antibiotic susceptibility testing is performed when at least a single organism within a pool of organisms reaches a certain threshold, (e.g., at least 3,000 cells/ml, at least 5,000 cells/ml, at least 10,000 cells/ml, etc.) and can grow in the presence of the antibiotic in the assay within the time of testing. (Note: 10,000 cells/ml is equivalent to 10,000 CFU/ml.) The present invention is not limited to a 10,000 cells/mL threshold. These pools of organism(s) are inoculated into growth medium then placed onto an antibiotic laden “spec plate” that is then incubated and analyzed for growth. The breakpoints are derived from the CLSI breakpoints.
P-AST was performed by aliquoting 1 mL of patient urine specimen into a 1.7 mL microcentrifuge tube. After centrifugation, the supernatant was aspirated and discarded, leaving approximately 100 or 50 μL (minimum volume left above pellet created from centrifugation) of patient sample in the microcentrifuge tube. One mL of Mueller Hinton Growth Media was then aliquoted into the patient sample in the microcentrifuge tube and the tubes were incubated at 35° C. in a non-CO2 incubator for 6 hours. Non-inoculated liquid MH-media is incubated as the negative control to confirm the media used is not contaminated. Those samples that reached a minimum threshold of 10,000 cells/mL were then diluted by aliquoting 0.5 mL of sample into a 50 mL conical tube containing Mueller Hinton Growth Media (in this example, the dilution was 1:60, e.g., 500 μL was added to 29.5 mL). 96-well plates pre-loaded with antibiotics were then inoculated with diluted samples and incubated along with control plates for 12-16 hours at 35° C. in a single layer. Optical density of samples was then read on a DensiCHEK plate reader. The DensiCHEK instrument is used to measure the concentration of turbid samples considered positive because PCR-ID result was >=10,000 cells/mL. The turbid samples were diluted/normalized to the same concentration and then added to a volume of liquid, e.g., 29.5 mL of liquid MH-media. A spectrophotometer (plate reader) is used to measure optical density of the samples in wells of antibiotics and inoculum in order to determine if there is growth in a well. The present invention is not limited to a concentration of 10,000 cells/mL.
Interactions between pairs of bacterial species were investigated using a logistic regression model to predict resistance in the presence of specific bacterial species. Bacterial species that tested positive in at least 30 samples were considered in the regression model: these 16 species were A. schaalii, A. urinae, A. omnicolens, CoNS, C. riegelii, E. faecalis, E. coli, K. oxytoca, K. pneumoniae, M. morganii, P. mirabilis, P. aeruginosa, S. aureus, S. agalactiae, U. urealyticum, VGS. Backward stepwise model selection was performed on the model with all main effects and all pairwise interactions using an enter significance level of α=0.10 and an exit significance level of α=0.05 to obtain the best fitting model. This model was used to predict resistance rates when a specific organism was present or when a specific pair of organisms were present.
Using the logistic regression model described above, the resistance rate for a pair of species was compared to the resistance rates for each species alone. […]

[1] = system: bacterial organisms present in patient urine sample; assay: Antibiotic Resistance (ABR) assay utilizing liquid growth medium; format: cell-based; settings: liquid medium
Protocol: Urine samples suitable for processing with this assay are collected, transported, and stored using BD Vacutainer tubes or other suitable leak-proof sterile containers. Urine samples may be held at room temperature for 48 hours before test results are compromised.
Antibiotic stocks are stored at 2-8° C. and protected from direct sunlight. Prepared antibiotic stock solutions were aliquoted into a 96-deep well plate (ThermoFisher Scientific) to form a 50× Antibiotic Source Plate and then diluted 1:5 to form a 10× Antibiotic Source Plate, as shown in FIG. 12 where each well is identified by antibiotic name and concentration (μg/mL; 10× final concentration). […] One well was assigned sodium azide to ensure no bacterial growth would be observed in that well.
Twenty microliters of each antibiotic solution were aliquoted into the pre-determined wells of a 96-well microplate (VIS 96/F-PS, Eppendorf) from the 10× Antibiotic Source Plate to create ABR testing plates for inoculation. These ABR testing plates were allowed to sit for up to 24 hours before use at 2-8° C. in the dark.
At the time of testing, urine samples were centrifuged to concentrate any bacterial cells and then mixed with liquid Mueller-Hinton medium and incubated for 6-16 hours at 37° C. After this initial incubation, the sample is diluted to 0.5-0.6 McF in saline and then 500 μl of that suspension was added to […] of Mueller-Hinton medium. One-hundred and eighty microliters of the diluted sample is then aliquoted to each well of the ABR microplate already containing 10× antibiotic solution, bringing all of the antibiotics to the desired final concentration. The plate is then sealed and incubated for 12-16 hours at 37° C.
After incubation, the plate was removed from the incubator and carefully uncovered and the OD600 was determined for each appropriate well by spectrophotometer. Five separate measurements were taken of each well on a plate and the mean OD600 measurement calculated for each well.
Controls are depicted in Table 10.
The raw data was then “blanked” using the measurement obtained from the Na-Azide well, as depicted in Table 14.
(§2) To determine whether bacterial organisms present in the patient samples were resistant or sensitive to a particular antibiotic at a certain concentration, blanked OD readings were compared to a threshold OD600 of 0.065 (Table 15). An OD measurement greater than or equal to this threshold was designated Resistant (R) meaning bacterial organisms present in patient sample were resistant to that particular antibiotic at that certain concentration. Any OD measurement less than this threshold was designated Sensitive (S) meaning bacterial organisms present in patient sample were sensitive to that particular antibiotic at that certain concentration.

[2] = system: E. coli and K. pneumoniae; assay: P-AST species-pair interaction on antibiotic resistance (logistic regression, HSAP/UP); format: cell-based, Escherichia coli; Klebsiella pneumoniae
Protocol: as §1
P-AST was performed by aliquoting 1 mL of patient urine specimen into a 1.7 mL microcentrifuge tube. After centrifugation, the supernatant was aspirated and discarded, leaving approximately 100 or 50 μL (minimum volume left above pellet created from centrifugation) of patient sample in the microcentrifuge tube. […] Optical density of samples was then read on a DensiCHEK plate reader. […] A spectrophotometer (plate reader) is used to measure optical density of the samples in wells of antibiotics and inoculum in order to determine if there is growth in a well. […]

[3] = system: bacterial organisms present in patient urine sample; assay: Antibiotic Resistance (ABR) assay utilizing agar-containing medium; format: cell-based
Protocol: Urine samples suitable for processing with this assay are collected, transported, and stored using BD Vacutainer (gray top) tubes or other suitable leak-proof sterile container. Urine samples may be held at room temperature for 48 hours before test results are compromised.
Antibiotic stocks are stored at 2-8° C. and protected from direct sunlight. Prepared antibiotic stock solutions were aliquoted into a 96-deep well plate (Thermo Fisher Scientific) to form an Antibiotic Source Plate, as shown in FIG. 11 and identified by antibiotic name and concentration (μg/mL; 10× final concentration). […] One well was designated AB-blend which contained a combination of antibiotics to ensure there was no bacterial growth.
One hundred microliters of Mueller-Hinton agar medium was aliquoted into each appropriate well position of a 96-well microplate (VIS 96/F-PS, Eppendorf). The medium was allowed to solidify at room temperature for at least 10 min.
The antibiotics (10 μL) at various concentrations were then aliquoted into desired wells from the Antibiotic Source Plate. After the antibiotics were introduced to the agar medium, the ABR microplates were allowed to sit for at least 1 hr before use. If long-term storage is required, ABR microplates containing antibiotic-infuse agar are stored at 2-8° C. in the dark.
At the time of testing, urine samples were diluted 1:20 in sterile saline and vortexed. Each patient sample utilized a single ABR microplate. Five microliters of diluted patient sample were added to each well of the room temperature microplate, the plate was sealed and incubated for 16-18 hr at 37° C.
After incubation, the plate was removed from the incubator and carefully uncovered. Two-hundred microliters of deionized water were added to each well to suspend cells present above the agar and the plates incubated at room temperature for 30 min. After 30 min, 100 μl from each well was removed to a new plate and the OD600 was determined in a spectrophotometer. Five separate reads were taken of each plate and a mean OD600 measurement calculated.
Controls include: No-antibiotic control, Negative control plate, and AB-Blend. No antibiotic control: Any well containing medium that is not infused with antibiotics to ensure viability of bacterial cells present in patient urine samples and included in each plate. […] Negative control plate: Microplate containing antibiotic-infused agar medium without addition of patient sample or cultured bacterial organisms to ensure non-contamination of reagents. AB-Blend: One or more wells containing a combination of antibiotics to ensure there is no bacterial growth.
The raw data was then “blanked” using the measurement obtained from the AB-Blend well, as depicted in Table 5.
as §2, with “0.025” for “0.065”, “6). Any” for “15). An”

SMILES | Blanked (OD600 minus Na-Azide well) ([1]; antibiotic 8 μg/mL) | Mean (OD600) ([1]; antibiotic 8 μg/mL) | Blanked (OD600 minus Na-Azide well) ([1]; antibiotic 2 μg/mL) | Mean (OD600) ([1]; antibiotic 2 μg/mL) | Blanked (OD600 minus Na-Azide well) ([1]; antibiotic 4 μg/mL) | Mean (OD600) ([1]; antibiotic 4 μg/mL) | Blanked (OD600 minus AB-Blend well) ([3]; antibiotic 4 μg/mL) | Mean (OD600) ([3]; antibiotic 4 μg/mL) | Blanked (OD600 minus AB-Blend well) ([3]; antibiotic 8 μg/mL) | Mean (OD600) ([3]; antibiotic 8 μg/mL) | other results
N[C@@H](C(=O)N[C@@H]1C(=O)N2C(C(=O)O)=C(Cl)CS[C@H]12)c1ccccc1 [Cefaclor, cefaclor] | 0.1875 | 0.2332 | – | – | – | – | – | – | – | – | change in antibiotic resistance of the pair of organisms (E. coli and P. mirabilis): decrease in resistance; also recorded: decreased odds of resistance; Blanked (OD600 minus Na-Azide well) ([1]; antibiotic 32 μg/mL): 0.0143; Mean (OD600) ([1]; antibiotic 32 μg/mL): 0.0600; change in antibiotic resistance of the pair of organisms ([2]; E. coli and K. pneumoniae together v. expected from each species alone (HSAP/UP)): increased odds of resistance; also recorded: higher resistance; also recorded: increased the probability of antibiotic resistance; also recorded: increase in resistance; resistance rate of the combination compared with each species alone ([2]; predicted probabilities, FIG. 1, HSAP model): higher than either E. coli or K. pneumoniae alone
CN(C)[C@@H]1C(O)=C(C(N)=O)C(=O)[C@@]2(O)C(O)=C3C(=O)c4c(O)cccc4[C@@](C)(O)[C@H]3C[C@@H]12 [tetracycline] | 0.1139 | 0.1596 | 0.1627 | 0.2084 | 0.1767 | 0.2224 | 0.3920 | 0.4304 | 0.4012 | 0.4396 | Blanked (OD600 minus Na-Azide well) ([1]; antibiotic 16 μg/mL): 0.0082; Mean (OD600) ([1]; antibiotic 16 μg/mL): 0.0539; Blanked (OD600 minus AB-Blend well) ([3]; antibiotic 16 μg/mL): 0.4166; Mean (OD600) ([3]; antibiotic 16 μg/mL): 0.4550
C[C@H]1COc2c(N3CCN(C)CC3)c(F)cc3c(=O)c(C(=O)O)cn1c23 [Levofloxacin, levofloxacin] | −0.0014 | 0.0443 | −0.0021 | 0.0436 | −0.0026 | 0.0431 | 0.0360 | 0.0744 | 0.0028 | 0.0412 | Blanked (OD600 minus Na-Azide well) ([1]; antibiotic 1 μg/mL): 0.0723; Mean (OD600) ([1]; antibiotic 1 μg/mL): 0.1180; Blanked (OD600 minus AB-Blend well) ([3]; antibiotic 1 μg/mL): 0.0024; Mean (OD600) ([3]; antibiotic 1 μg/mL): 0.0408; Blanked (OD600 minus AB-Blend well) ([3]; antibiotic 2 μg/mL): 0.0017; Mean (OD600) ([3]; antibiotic 2 μg/mL): 0.0401

Source: patent publication US20210301315A1, “METHODS FOR TREATING POLYMICROBIAL INFECTIONS” (priority 2017, published 2021)
